Each compound was assayed against T1, HCV polymerase (Hepatitis C virus genotype 1b, UniProt P26663) (assay: HCV polymerase primer/template-directed transcription assay (32P-GTP incorporation, filter binding)). Conditions: recombinant HCV polymerase; 30 minutes at 30° C.; concentration giving 50% inhibition of polymerase-directed transcription; read-out: IC50.
T1 construct: 2.5 pmoles (0.15 μg) HCV polymerase protein in a final volume of 75 μL
T1 sequence (P26663 2420-3010): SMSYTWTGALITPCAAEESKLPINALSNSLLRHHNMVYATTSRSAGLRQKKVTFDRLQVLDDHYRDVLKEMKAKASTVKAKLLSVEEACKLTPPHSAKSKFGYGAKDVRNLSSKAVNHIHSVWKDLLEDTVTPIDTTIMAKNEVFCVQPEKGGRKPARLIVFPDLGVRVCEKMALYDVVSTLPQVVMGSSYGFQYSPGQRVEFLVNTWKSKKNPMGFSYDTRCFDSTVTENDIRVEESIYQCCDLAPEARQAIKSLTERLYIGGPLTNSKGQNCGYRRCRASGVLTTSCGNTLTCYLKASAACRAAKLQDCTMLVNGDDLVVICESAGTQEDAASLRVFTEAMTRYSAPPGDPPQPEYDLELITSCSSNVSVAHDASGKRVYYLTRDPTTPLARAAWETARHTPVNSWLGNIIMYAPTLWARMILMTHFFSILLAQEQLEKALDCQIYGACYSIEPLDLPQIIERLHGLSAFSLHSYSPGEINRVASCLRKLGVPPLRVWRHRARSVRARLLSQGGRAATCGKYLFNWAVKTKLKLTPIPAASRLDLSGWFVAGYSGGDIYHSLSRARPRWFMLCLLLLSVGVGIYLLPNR
Type: biochemical
How it was run: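 Recombinant genotype 1b polymerase (30 nM) extended biotin-dG12 primer on poly(rC)300 template with 1 μM GTP plus α-32P-GTP, pH 7.2, 10 mM MgCl2, 30 min at 30° C, 1% DMSO final. Products captured on DE filters and counted. IC50 fitted from triplicate cpm, with a tight-binding correction applied below 200 nM.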
`CCCc1cc(CCC2(C3CCCC3)CC(O)=C(Cc3nc4nc(C)cc(C)n4n3)C(=O)O2)ccc1O` (stereo not drawn) [A(136), 6-cyclopentyl-3-[(5,7-dimethyl[1,2,4]triazolo[1,5-a]pyrimidin-2-yl)methyl]-4-hydroxy-6-[2-(4-hydroxy-3-propylphenyl)ethyl]-5,6-dihydro-2H-pyran-2-one] showed an IC50 of 2 nM.
Work on `CCCc1cc(CCC2(C3CCCC3)CC(O)=C(Cc3nc4nc(CC)cc(CC)n4n3)C(=O)O2)ccc1O` (stereo not drawn) [A(137), 6-cyclopentyl-3-[(5,7-dietylphenyl)ethyl]-5,6-hyl[1,2,4]triazolo[1,5-a]pyrimidin-2-yl)methyl]-4-hydroxy-6-[2-(4-hydroxy-3-propdihydro-2H-pyran-2-one] yielded an IC50 of 7 nM.
For `CCc1cc(CC)n2nc(CC3C(=O)CC(CCc4ccc(O)c(CC)c4)(C4CCCC4)OC3=O)nc2n1` (stereo not drawn) [A(138), 6-cyclopentyl-3-[(5,7-diethyl[1,2,4]triazolo[1,5-a]pyrimidin-2-yl)methyl]-6-[2-(3-ethyl-4-hydroxyphenyl)ethyl]-4-hydroxy-5,6-dihydro-2H-pyran-2-one], the IC50 was 8 nM.
Compound `CCc1cc(CCC2(C3CCCC3)CC(O)=C(Cc3nc4nc(C)cc(C)n4n3)C(=O)O2)ccc1OCCNC(C)=O` (stereo not drawn) [A(139), N-{2-[4-(2-{2-cyclopentyl-5-[(5,7-dimethyl[1,2,4]triazolo[1,5-a]pyrimidin-2-yl)methyl]-4-hydroxy-6-oxo-3,6-dihydro-2H-pyran-2-yl}ethyl)-2-ethylphenoxy]ethyl}acetamide] has an IC50 of 2 nM.
`CC(C)(C#N)c1c(F)cc(CCC2(C3CCCC3)CC(O)=C(Cc3nc4ncc(Cl)cn4n3)C(=O)O2)cc1F` (stereo not drawn) [A(142)] showed an IC50 of 4 nM.
In the case of `Cc1cnc2nc(CC3=C(O)CC(CCc4cc(F)c(C(C)(C)C#N)c(F)c4)(C4CCCC4)OC3=O)nn2c1` (stereo not drawn) [A(143), 2-(4-{2-[2-Cyclopentyl-4-hydroxy-5-(6-methyl-[1,2,4]triazolo[1,5-a]pyrimidin-2-ylmethyl)-6-oxo-3,6-dihydro-2H-pyran-2-yl]-ethyl}-2,6-difluoro-phenyl)-2-methyl-propionitrile], the IC50 is reported as 9 nM.
Compound `CC(C)(C#N)c1c(F)cc(CCC2(C3CCCC3)CC(O)=C(Cc3nc4ncccn4n3)C(=O)O2)cc1F` (stereo not drawn) [A(144), 2-{4-[2-(2-Cyclopentyl-4-hydroxy-6-oxo-5-[1,2,4]triazolo[1,5-a]pyrimidin-2-ylmethyl-3,6-dihydro-2H-pyran-2-yl)-ethyl]-2,6-difluoro-phenyl}-2-methyl-propionitrile] has an IC50 of 11 nM.
`COC1=CC(=O)OC(CCc2ccc(C(C)(C)C#N)c(F)c2)(C2CCCC2)C1` (stereo not drawn) [A(145), 2-{4-[2-(2-Cyclopentyl-4-methoxy-6-oxo-3,6-dihydro-2H-pyran-2-yl)-ethyl]-2-fluoro-phenyl}-2-methyl-propionitrile] gave an IC50 of 3900 nM.
Work on `Cc1cc(C)n2nc(CC3=C(O)CC(CCc4ccc(C(C)(C)C#N)c(Cl)c4)(C4CCCC4)OC3=O)nc2n1` (stereo not drawn) [A(146), 2-(2-Chloro-4-{2-[2-cyclopentyl-5-(5,7-dimethyl-[1,2,4]triazolo[1,5-a]pyrimidin-2-ylmethyl)-4-hydroxy-6-oxo-3,6-dihydro-2H-pyran-2-yl]-ethyl}-phenyl)-2-methyl-propionitrile] yielded an IC50 of 2 nM.
With `CC(C)(C#N)c1ccc(CCC2(C3CCCC3)CC(=O)CC(=O)O2)cc1Cl` (stereo not drawn) [A(147), 2-{2-Chloro-4-[2-(2-cyclopentyl-4,6-dioxo-tetrahydro-pyran-2-yl)-ethyl]-phenyl}-2-methyl-propionitrile] the IC50 was 1400 nM.
Compound `Cc1cc(C)n2nc(CC3=C(O)CC(CCc4ccc(C5(C#N)CC5)c(Cl)c4)(C4CCCC4)OC3=O)nc2n1` (stereo not drawn) [A(148), 1-(2-Chloro-4-{2-[2-cyclopentyl-5-(5,7-dimethyl-[1,2,4]triazolo[1,5-a]pyrimidin-2-ylmethyl)-4-hydroxy-6-oxo-3,6-dihydro-2H-pyran-2-yl]-ethyl}-phenyl)-cyclopropanecarbonitrile] has an IC50 of 5 nM.
In the case of `N#CC1(c2ccc(CCC3(C4CCCC4)CC(=O)CC(=O)O3)cc2Cl)CC1` (stereo not drawn) [A(149), 1-{2-Chloro-4-[2-(2-cyclopentyl-4,6-dioxo-tetrahydro-pyran-2-yl)-ethyl]-phenyl}-cyclopropanecarbonitrile], the IC50 is reported as 3900 nM.

Source: patent publication US7473790B2 (Pfizer Inc., priority 2003, dated 2009)
